The assay concerns the target T1, EphB1-EphrinB2 (Rattus norvegicus, UniProt P09759).
T1 construct: rat EphB1-Fc residues 18-538; mouse EB2-His residues 18-232; purchased R&D Systems (EphB1-Fc); Sino Biologicals (EB2-His)
T1 sequence (P09759 18-538): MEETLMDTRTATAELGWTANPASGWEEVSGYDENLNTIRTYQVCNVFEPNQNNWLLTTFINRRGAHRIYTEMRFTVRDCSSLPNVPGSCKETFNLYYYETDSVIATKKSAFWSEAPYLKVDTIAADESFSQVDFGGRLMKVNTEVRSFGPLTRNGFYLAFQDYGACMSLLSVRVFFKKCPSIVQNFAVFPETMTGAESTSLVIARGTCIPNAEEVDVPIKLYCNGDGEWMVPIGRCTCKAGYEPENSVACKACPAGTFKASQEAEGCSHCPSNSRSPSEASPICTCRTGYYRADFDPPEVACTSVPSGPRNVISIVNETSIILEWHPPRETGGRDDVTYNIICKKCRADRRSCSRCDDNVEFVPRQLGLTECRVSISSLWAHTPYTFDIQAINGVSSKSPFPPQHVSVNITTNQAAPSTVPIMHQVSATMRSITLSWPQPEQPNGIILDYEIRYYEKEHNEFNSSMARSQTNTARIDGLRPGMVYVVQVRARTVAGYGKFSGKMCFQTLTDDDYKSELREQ
The experiment in a line: Octet RED384, immobilized rat EphB1-Fc binding to 30 nM mouse EB2-His (400 sec / 500 sec). Also on record: species or system mouse EphrinB2. The protocol: FIGS. 9A-9B depict Octet RED384 kinetic analysis sensorgram data of 30 nM soluble mouse EphrinB2 (mEB2-His) protein binding to sensorchip immobilized rat EphB1-Fc (FIG. 9A) or mouse EphB4-Fc (FIG. 9B) protein and effect of increased concentration of A20. Association time was for 400 sec and dissociation time was for 500 sec. Binding assays were conducted in PBS containing 0.05% Tween-20 and 1% DMSO.
The experiments described above involve measurements following long-term incubation of proteins with compound and thus represent information after interaction homeostasis has been achieved (FIG. 5A, FIG. 5B, FIG. 5C, and FIG. 5D) or after complexes are extensively washed (ELISAs and pulldowns, FIG. 8). To further analyze biophysical activity of A20 in real-time, kinetic studies were performed using an Octet® RED384 system to visualize the effect of compound on EphB1-EB2 protein-protein binding dynamics. In these experiments, EphB1-Fc ectodomain protein was first sparsely immobilized onto a set of Octet biosensors, […], 1, 10, or 100 μM A20 for a 400 sec association step followed by exposure to buffer only for a 500 sec dissociation step. […] The sensorgram provides various data of the binding kinetics, such as on rates (kon), off rates (koff), and equilibrium dissociation constant (KD). […] Specifically, EphB2 forms a dimer with EphrinB2, and that two dimers then assemble together into a circular tetramer structure (see FIG. 10 and Himanen J P, Rajashankar K R, Lackmann M, Cowan C A, Henkemeyer M, and Nikolov DB. (2001). Crystal structure of an Eph receptor-ephrin complex. Nature 414:933-8, which is incorporated herein by reference in its entirety).
The distinct dimerization and tetramerization interfaces are indicated. Circular tetramers further cluster together to pack in the crystal via additional ligand-ligand (red arrow) and receptor-receptor (blue arrow) interfaces. Many studies by multiple groups show the circular tetramer and tetramer clusters are observed in vivo and that they are needed in order to form the active complex necessary for the transduction of Eph-Ephrin bidirectional signals. […] A variety of methods can be used to compare the different sensorgrams obtained from a dose-dependent run of a drug compound to quantify its LA activity and obtain IC50 information. Single time points in the assay can be picked and response signals obtained at the different compound doses can be compared, such as at 380 sec near the end of the association step or at 100 sec after start of the dissociation step.
Antagonists are classified as either competitive/reversible or irreversible, depending on how the particular inhibitor interacts with its protein targets. A reversible antagonist will bind receptor protein via non-covalent intermolecular forces, and it will eventually dissociate from the receptor, freeing the protein to bind either another antagonist chemical in the solution or its bona-fide ligand protein. […] A competitive antagonist is thought to bind to receptor protein at the same binding site/interface as the endogenous ligand (aka Ephrin), but without activating the receptor. Ligand and antagonist will thus compete for the same binding site on the receptor; when antagonist is bound to receptor it will prevent ligand binding and increasing concentrations of an antagonist will displace in a dose-dependent fashion the ability of ligand from binding the receptor. Since, most receptor antagonists participate in a reversible, non-covalent, competitive type of interaction, two Octet experiments were conducted to determine if this was indeed the mode of action of A20. To determine if A20 is a reversible inhibitor/antagonist, rEphB1-Fc was first immobilized onto sensor chips, then pre-exposed to 100 μM A20, then washed to remove A20, and after baseline measurements then tested for binding to 30 nM soluble mEB2-His protein. […]
A general note: In BLI a coated tip is dipped into the sample, and binding shifts an interference pattern.

Setting [1] is: Relative Dissociation IC50, rEphB1-mEphrinB2, immobilized rat EphB1, 50 nM soluble mouse EphrinB2, dissociation, relative.
Setting [2] is: rEphB1-mEphrinB2, immobilized rat EphB1, 50 nM soluble mouse EphrinB2, association, absolute, read-out: Absolute Association IC50.
[3] abbreviates: rEphB1-mEphrinB2, immobilized rat EphB1, 50 nM soluble mouse EphrinB2, association, relative, read-out: Relative Association IC50.
[4] abbreviates: rEphB1-mEphrinB2, immobilized rat EphB1, 50 nM soluble mouse EphrinB2, dissociation, absolute, read-out: Absolute Dissociation IC50.
Setting [5] is: Absolute Dissociation IC50, rEphB1-mEphrinB2, immobilized rat EphB1, 50 nM soluble mouse EphrinB2, dissociation, absolute.
[6] abbreviates: EphB1-EB2, AUC, read-out: IC50 (area under the curve).

We go through eight compounds from US20260374739A1, “SMALL MOLECULAR WEIGHT CHEMICAL COMPOUND TO ANTAGONIZE EPH-EPHRIN TETRAMERIZATION AND INHIBIT BIDIRECTIONAL SIGNALING” (THE BOARD OF REGENTS OF THE UNIVERSITY OF TEXAS SYSTEM, priority 2022, published 2026).

Values joined by “and” are separate entries in the source; they are usually repeats but may differ in a detail not shown here. Equal entries are not always repeated. “Also recorded” adds a separate entry of the source. Where two headings read alike, the source gives them in different places.

As for `Oc1ccc(CN2CCOCC2)c2cccnc12` [Compound 1, 5-(morpholinomethyl)quinolin-8-ol], the IC50 (in general, the concentration needed to halve the response being measured) under setting [1] was 3.29 µM; the IC50 under setting [2] was determined as 100 µM; the IC50 under setting [3] was found to be 100 µM; the IC50 under setting [4] was 100 µM.

With `Oc1c(Cl)cc(CN2CCOCC2)c2cccnc12` [Compound 4, 4-((7-chloro-8-hydroxyquinolin-1-ium-5-yl)methyl)morpholin-4-ium chloride], the IC50 by setting is: under setting [5], 0.83 µM; under setting [1], 0.64 µM; under setting [2], 14.2 µM; under setting [3], 0.93 µM.

In the case of `Oc1c(Br)cc(CN2CCOCC2)c2cccnc12` [Compound 5, 7-bromo-5-(morpholinomethyl)quinolin-8-ol], under setting [6], the IC50 turned out to be 9.33 µM. Moreover, the “mode of antagonism” value (reversibility 100 μM pre-exposure, competition 0.1-1000 nM EB2, listed as A20) was “compound acts as a reversible inhibitor; also recorded: compound is a competitive inhibitor of EphB1-EB2 binding”.

`Oc1c(Br)cc(CN2CCOCC2)c2cccnc12` [Compound 6, 4-((7-bromo-8-hydroxyquinolin-1-ium-5-yl)methyl)morpholin-4-ium chloride]: the IC50 (100 sec dissociation, read-out: IC50 (response at 100 sec after dissociation step)) came to 2.4 µM; the IC50 (380 sec association, read-out: IC50 (response at 380 sec after association)) was determined as 3.09 µM; the IC50 under setting [6] turned out to be 3.63 µM; the IC50 under setting [2] is 28.4 µM; the IC50 under setting [3] turned out to be 0.74 µM. In addition, the “antagonist activity of salt vs free-base” value (fold better than free-base) was 2-3 fold.

Regarding `Oc1c(I)cc(CN2CCOCC2)c2cccnc12` [Compound 8, 4-((8-hydroxy-7-iodoquinolin-1-ium-5-yl)methyl)morpholin-4-ium chloride], the IC50 under setting [2] is > 1.6 µM and 100 µM; the concentration for half-maximal inhibition (IC50) under setting [3] was 0.28 µM and 0.53 µM; the IC50 under setting [4] is 0.71 µM and 0.51 µM; the IC50 (rEphB1-mEphrinB2, immobilized rat EphB1, 50 nM soluble mouse EphrinB2, dissociation, relative, read-out: Relative Dissociation IC50) was 0.51 µM and 0.45 µM.

As for `O=[N+]([O-])c1cc(CN2CCOCC2)c2cccnc2c1O` [Compound 10, 4-((8-hydroxy-7-nitroquinolin-1-ium-5-yl)methyl)morpholin-4-ium chloride], the IC50 reads like this: under setting [5], 2.48 µM; under setting [1], 1.99 µM; under setting [2], 99 µM; under setting [3], 5.39 µM.

Take `O=S1(=O)CCN(Cc2ccc(O)c3ncccc23)CC1` [Compound 15, 4-((8-hydroxyquinolin-1-ium-5-yl)methyl)thiomorpholin-4-ium 1,1-dioxide chloride]: the IC50 came to 0.9 µM under setting [1], 100 µM under setting [2] and 100 µM under setting [3].

With `Oc1ccc(CN2CCN(Cc3ccc(C(F)(F)F)cc3)CC2)c2cccnc12` [Compound 48, 5-((4-(4-(trifluoromethyl)benzyl)piperazin-1-yl)methyl)quinolin-8-ol], the IC50 was 15.1 µM under setting [5], 2.37 µM under setting [1], 100 µM under setting [2] and greater than 10 µM under setting [3].
